Measurements as given in the supplement of paper PMC10627819.

Key:
S. aureus Newman [1] = assay: fitness (endpoint OD595 vs no drug) (fraction); higher = more growth
Procedure, shortened: (§1)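 Fitness was measured as bacterial growth in 384-well plates inoculated at OD595 0.01 (30 µl, or 55 µl for S. pneumoniae). Media were TSB, LB Lennox or CY, at 37 °C. OD595 was read every 30 min for 14 h and background-subtracted against the first reading. Fitness is OD595 at the transition into stationary phase divided by the robust mean of no-drug control wells, capped at 1.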

S. pneumoniae D39V [2] = assay: as above
Procedure, shortened: as §1

B. subtilis 168 = assay: Bliss interaction score (quartile over a dose matrix) (fitness difference); higher = more antagonism (negative = synergy)
Procedure, shortened: (§2)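 Growth in each well was taken as OD595 at entry into stationary phase. Dividing by the plate's robust no-drug mean and capping at 1 gave fitness, and single-drug fitness was inferred from the combination data. The Bliss score, observed minus product-expected fitness, is summarised by quartiles over technical, biological and donor/recipient replicates.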

S. aureus DSM 20231 = assay: as above
Procedure, shortened: as §2

S. aureus Newman [3] = assay: as above
Procedure, shortened: as §2

S. pneumoniae D39V [4] = assay: as above
Procedure, shortened: as §2
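For Bliss interaction score (quartile over a dose matrix) in this document: first quartile when negative (synergy) and third quartile when positive (antagonism).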

CC1(C)S[C@@H]2[C@H](NC(=O)[C@H](N)c3ccc(O)cc3)C(=O)N2[C@H]1C(=O)O [Amoxicillin] + CN[C@@H]1[C@H](O[C@H]2[C@H](O[C@H]3[C@H](O)[C@@H](O)[C@H](N=C(N)N)[C@@H](O)[C@@H]3N=C(N)N)O[C@@H](C)[C@]2(O)C=O)O[C@@H](CO)[C@H](O)[C@H]1O [Streptomycin]
fitness
Conditions	first compound 0.0008 µg/mL	first compound 0.0015 µg/mL	first compound 0.003 µg/mL	first compound 0.0625 µg/mL	first compound 0.125 µg/mL	first compound 0.25 µg/mL
S. aureus Newman [1], partner 1 µg/mL	–	–	–	0.857	0.856	0.845
S. aureus Newman [1], partner 2 µg/mL	–	–	–	0.823	0.792	0.798
S. pneumoniae D39V [2], partner 2 µg/mL	0.979	0.931	0.899	–	–	–
S. pneumoniae D39V [2], partner 4 µg/mL	0.947	0.877	0.866	–	–	–
S. pneumoniae D39V [2], partner 8 µg/mL	0.968	0.929	0.895	–	–	–

one replicate
Conditions	fitness
S. aureus Newman [1], first compound 0.0625 µg/mL, partner 8 µg/mL	0.0265
S. aureus Newman [1], first compound 0.125 µg/mL, partner 8 µg/mL	0.0373
S. aureus Newman [1], first compound 0.25 µg/mL, partner 8 µg/mL	0.0414
S. pneumoniae D39V [2], first compound 0.0008 µg/mL, partner 16 µg/mL	0.807
S. pneumoniae D39V [2], first compound 0.0015 µg/mL, partner 16 µg/mL	0.749
S. pneumoniae D39V [2], first compound 0.003 µg/mL, partner 16 µg/mL	0.724
S. pneumoniae D39V [2], first compound 0.006 µg/mL, partner 2 µg/mL	0.488
S. pneumoniae D39V [2], first compound 0.006 µg/mL, partner 4 µg/mL	0.413
S. pneumoniae D39V [2], first compound 0.006 µg/mL, partner 8 µg/mL	0.274

Conditions	Bliss interaction score
B. subtilis 168	-0.054
S. aureus DSM 20231	-0.0777
S. aureus Newman [3]	-0.0764
S. pneumoniae D39V [4]	0.0594

CC1(C)S[C@@H]2[C@H](NC(=O)[C@H](N)c3ccc(O)cc3)C(=O)N2[C@H]1C(=O)O [Amoxicillin] + CO/N=C(\C(=O)N[C@@H]1C(=O)N2C(C(=O)O)=C(COC(N)=O)CS[C@H]12)c1ccco1 [Cefuroxime]
fitness, S. aureus Newman [1], one replicate
Conditions	first compound 0.0625 µg/mL	first compound 0.125 µg/mL	first compound 0.25 µg/mL
partner 0.04875 µg/mL	0.944	0.932	0.841
partner 0.0975 µg/mL	0.895	0.804	0.747
partner 0.195 µg/mL	0.895	0.805	0.772

Conditions	Bliss interaction score
B. subtilis 168	0.0792
S. aureus DSM 20231	-0.127
S. aureus Newman [3]	0.097
S. pneumoniae D39V [4]	0.0491

CC1(C)S[C@@H]2[C@H](NC(=O)[C@H](N)c3ccc(O)cc3)C(=O)N2[C@H]1C(=O)O [Amoxicillin] + O=C(O)c1cn(C2CC2)c2cc(N3CCNCC3)c(F)cc2c1=O [Ciprofloxacin]
Conditions	fitness
S. aureus Newman [1], first compound 0.0625 µg/mL, partner 0.0375 µg/mL	0.734
S. aureus Newman [1], first compound 0.0625 µg/mL, partner 0.075 µg/mL	0.656
S. pneumoniae D39V [2], first compound 0.0008 µg/mL, partner 0.125 µg/mL	0.93
S. pneumoniae D39V [2], first compound 0.0008 µg/mL, partner 0.25 µg/mL	0.834
S. pneumoniae D39V [2], first compound 0.0015 µg/mL, partner 0.125 µg/mL	0.94
S. pneumoniae D39V [2], first compound 0.0015 µg/mL, partner 0.25 µg/mL	0.828
S. pneumoniae D39V [2], first compound 0.003 µg/mL, partner 0.125 µg/mL	0.934
S. pneumoniae D39V [2], first compound 0.003 µg/mL, partner 0.25 µg/mL	0.826
S. pneumoniae D39V [2], first compound 0.003 µg/mL, partner 0.5 µg/mL	0.747

fitness, one replicate
Conditions	partner 0.078 µg/mL	partner 0.125 µg/mL	partner 0.156 µg/mL	partner 0.25 µg/mL	partner 0.312 µg/mL	partner 0.5 µg/mL
S. aureus Newman [1], first compound 0.0625 µg/mL	0.327	–	0.075	–	0.0582	–
S. aureus Newman [1], first compound 0.125 µg/mL	0.192	–	0.0621	–	0.038	–
S. aureus Newman [1], first compound 0.25 µg/mL	0.144	–	0.056	–	0.0663	–
S. pneumoniae D39V [2], first compound 0.006 µg/mL	–	0.549	–	0.474	–	0.453

Conditions	Bliss interaction score
B. subtilis 168	-0.063
S. aureus DSM 20231	-0.0788
S. aureus Newman [3]	-0.0561
S. pneumoniae D39V [4]	0.0751

CO/N=C(\C(=O)N[C@@H]1C(=O)N2C(C(=O)[O-])=C(C[N+]3(C)CCCC3)CS[C@H]12)c1csc(N)n1 [Cefepime] + C/C(=C\C(=O)OCCCCCCCCC(=O)O)C[C@@H]1OC[C@H](C[C@@H]2O[C@H]2[C@@H](C)[C@H](C)O)[C@@H](O)[C@H]1O [Pseudomonic acid]
fitness, S. aureus Newman [1], one replicate
Conditions	first compound 0.125 µg/mL	first compound 0.25 µg/mL	first compound 0.5 µg/mL
partner 0.0313 µg/mL	0.0486	0.044	0.0558
partner 0.0625 µg/mL	0.0381	0.0306	0.0329
partner 0.125 µg/mL	0.0329	0.0557	0.0514

fitness, S. pneumoniae D39V [2]
Conditions	first compound 0.007 µg/mL	first compound 0.0078 µg/mL	first compound 0.014 µg/mL	first compound 0.0155 µg/mL	first compound 0.028 µg/mL	first compound 0.031 µg/mL
partner 0.03 µg/mL	≥ 1	0.93	≥ 1	0.945	≥ 1	0.747
partner 0.06 µg/mL	0.924	0.814	0.976	0.796	0.968	0.631
partner 0.12 µg/mL	0.583	0.578	0.631	0.56	0.568	0.382

Conditions	Bliss interaction score
B. subtilis 168	0.0521
S. aureus DSM 20231	0.0141
S. aureus Newman [3]	0.0093
S. pneumoniae D39V [4]	0.0923

CO/N=C(\C(=O)N[C@@H]1C(=O)N2C(C(=O)[O-])=C(C[N+]3(C)CCCC3)CS[C@H]12)c1csc(N)n1 [Cefepime] + CC1=C(C(=O)O)N2C(=O)[C@@H](NC(=O)[C@H](N)c3ccccc3)[C@H]2SC1 [Cephalexin]
fitness
Conditions	first compound 0.007 µg/mL	first compound 0.014 µg/mL	first compound 0.028 µg/mL	first compound 0.125 µg/mL	first compound 0.25 µg/mL	first compound 0.5 µg/mL
S. aureus Newman [1], partner 0.25 µg/mL	–	–	–	0.941	0.876	0.843
S. aureus Newman [1], partner 0.5 µg/mL	–	–	–	0.939	0.867	0.8
S. aureus Newman [1], partner 1 µg/mL	–	–	–	0.969	0.922	0.861
S. pneumoniae D39V [2], partner 1 µg/mL	0.93	0.923	0.584	–	–	–
S. pneumoniae D39V [2], partner 2 µg/mL	0.101	0.0733	0.0074	–	–	–
S. pneumoniae D39V [2], partner 4 µg/mL	0.0209	0.0355	0.015	–	–	–

fitness, S. pneumoniae D39V [2], one replicate
Conditions	first compound 0.0078 µg/mL	first compound 0.0155 µg/mL	first compound 0.031 µg/mL
partner 0.125 µg/mL	≥ 1	0.94	0.434
partner 0.25 µg/mL	0.988	0.96	0.529
partner 0.5 µg/mL	≥ 1	0.925	0.297

Conditions	Bliss interaction score
B. subtilis 168	0.0474
S. aureus DSM 20231	0.0619
S. aureus Newman [3]	-0.0529
S. pneumoniae D39V [4]	-0.105
